Test results published in PMC10178127, “Immunomodulatory Effects of the Pea Defensin Psd1 in the Caco-2/Immune Cells Co-Culture upon Candida albicans Infection” (International Journal of Molecular Sciences, 2023).

How the values were obtained:
Caco-2/moDCs co-culture = assay: Multiplex xMAP cytokine production, Caco-2/dendritic cells co-culture; assay type: cell-based, human; conditions: Caco-2/moDCs+Psd1; 2 µM apical, 24 h, basolateral medium
Excerpt: The co-culture model consisted of immune cells (moDCs or monocytes) lying on the bottom of the culture well, and a Caco-2 polarized monolayer, mimicking intestinal epithelium, on a permeable insert. Immune cells were located on the serosal side of the epithelial barrier. In some inserts Candida albicans was loaded to the apical side of the epithelium, mimicking intestinal lumen colonization with this pathogenic fungus. This co-culture model allows yeast cells to contact only with the apical side of epithelial cells, but not with immune cells. Culture medium, containing cytokines, chemokines, and growth factors, produced by both epithelial and immune cells, was taken from basolateral chambers and analyzed by multiplex xMAP technology after incubation during 24 h when C. albicans cells switched to hyphal form.
For growing cells, mimicking epithelial barriers in vitro, Caco-2 cells were seeded onto 24-well polycarbonate Millicell cell culture inserts (0.4 μm, 0.6 cm^2 surface area) (Millipore, Burlington, MA, USA), precoated with 0.2% bovine gelatin (Sigma-Aldrich), at a density of 2.5 × 10^5 cells/cm^2. The cells were grown for 21 days in a complete DMEM/F12 (1:1) medium with re-feeding every 2–3 days with a fresh complete medium. The integrity of the Caco-2 cell monolayer was checked by measuring the transepithelial electrical resistance (TEER) using a Millicell-ERS Voltohmmeter (Millipore). Only cell monolayers with TEER > 400 Ωcm^2 (after subtracting TEER in blank inserts without Caco-2 cells) were used in transport across epithelial monolayer and cytokine production experiments.
Monocytes and moDCs were seeded into the wells of 48- and 24-well plates in the complete RPMI-1640 medium supplemented with 10% human AB serum (HABS, Capricorn Scientific) without antibiotics 24 h prior to the experiment, and kept in a humidified CO2-incubator (5% CO2, 37 °C). After 24 h, the medium in the wells of the 48-well plate was replaced by fresh complete RPMI-1640 medium with 10% HABS, supplemented with 2 µM of Psd1 for the sample wells or fresh medium alone for the control wells. Medium in the wells of the 24-well plate was replaced by fresh complete RPMI-1640 medium with 10% human serum without antibiotics. Then, Millicell inserts with Caco-2 monolayers with TEER > 400 Ωcm^2 were placed into the wells of the 24-well plate, containing monocytes or moDCs. Wells with Millicell inserts with Caco-2 monolayers without immune cells were used as control wells. Medium in apical chambers of Millicell inserts was replaced by fresh complete RPMI-1640 with 10% human serum medium containing Psd1 at the final concentration of 2 µM or Candida albicans at the concentration of 5 × 10^4 cells/mL or yeast cells together with the pea defensin at the same concentration. Fresh complete RPMI-1640 medium only with 10% human serum and without antibiotics was used in control wells. Plates were kept in CO2-incubator (5% CO2, 37 °C) for another 24 h. Culture supernatants from the wells of the 48-well plate and basolateral chambers of the 24-well plate were collected and stored at −70 °C degrees less than one month prior to the analytes assessment. […]

[1] = system: Beas-2B human bronchial epithelial cells; conditions: cited from earlier work
Excerpt: It was shown previously that pea Psd1 is not toxic for Beas-2B human bronchial epithelial cells. Here we investigated the cytotoxic action of the pea Psd1 on human immune cells by using a human peripheral blood mononuclear cells (PBMCs) fraction.

Substance: Psd1: pea defensin from Pisum sativum (UNIPROT P81929), recombinant peptide overexpressed in Escherichia coli (KTCEHLADTYRGVCFTNASCDDHCKNKAHLISGTCHNWKCFCTQNC; UniProt P81929 1-46, looked up)
- EGF level (Caco-2/moDCs co-culture): 4.72 pg/mL
- Eotaxin level (Caco-2/moDCs co-culture): <3.52↓ pg/ml
- FGF-2 level (Caco-2/moDCs co-culture): 45.43 pg/mL
- FLT-3L level (Caco-2/moDCs co-culture): 0.57 pg/mL
- Fractalkine level (Caco-2/moDCs co-culture): <17.82↓ pg/ml
- G-CSF level (Caco-2/moDCs co-culture): 9.1 pg/mL
- GM-CSF level (Caco-2/moDCs co-culture): 3.93 pg/mL
- GROa level (Caco-2/moDCs co-culture): 21.95 pg/mL
- IFNa2 level (Caco-2/moDCs co-culture): 5.69 pg/mL
- IFNg level (Caco-2/moDCs co-culture): <2.23↓ pg/ml
- IL-1RA level (Caco-2/moDCs co-culture): 141.59 pg/mL
- IL-1a level (Caco-2/moDCs co-culture): 4.37 pg/mL
- IL-1b level (Caco-2/moDCs co-culture): 9.3 pg/mL
- IL-2 level (Caco-2/moDCs co-culture): 1.57 pg/mL
- IL-3 level (Caco-2/moDCs co-culture): <0.60↓ pg/ml
- IL-4 level (Caco-2/moDCs co-culture): <1.14↓ pg/ml
- IL-5 level (Caco-2/moDCs co-culture): 3.35 pg/mL
- IL-6 level (Caco-2/moDCs co-culture): 2.41 pg/mL
- IL-7 level (Caco-2/moDCs co-culture): <0.38↓ pg/ml
- IL-8 level (Caco-2/moDCs co-culture): 134.16 pg/mL
- IL-9 level (Caco-2/moDCs co-culture): 3.44 pg/mL
- IL-10 level (Caco-2/moDCs co-culture): 10.61 pg/mL
- IL-12 (p40) level (Caco-2/moDCs co-culture): 52.85 pg/mL
- IL-12 (p70) level (Caco-2/moDCs co-culture): <1.68↓ pg/ml
- IL-13 level (Caco-2/moDCs co-culture): 16.44 pg/mL
- IL-15 level (Caco-2/moDCs co-culture): 10.29 pg/mL
- IL-17A level (Caco-2/moDCs co-culture): <2.09↓ pg/ml
- IL-17E/IL-25 level (Caco-2/moDCs co-culture): <18.85↓ pg/ml
- IL-17F level (Caco-2/moDCs co-culture): <19.03↓ pg/ml
- IL-18 level (Caco-2/moDCs co-culture): 4.84 pg/mL
- IL-22 level (Caco-2/moDCs co-culture): <5.23↓ pg/ml
- IL-27 level (Caco-2/moDCs co-culture): 53.57 pg/mL
- IP-10 level (Caco-2/moDCs co-culture): 330.74 pg/mL
- M-GSF level (Caco-2/moDCs co-culture): 144.24 pg/mL
- MCP-1 level (Caco-2/moDCs co-culture): 362.92 pg/mL
- MCP-3 level (Caco-2/moDCs co-culture): 20.63 pg/mL
- MDC level (Caco-2/moDCs co-culture): 2562 pg/mL
- MIG level (Caco-2/moDCs co-culture): 32839 pg/mL
- MIP-1a level (Caco-2/moDCs co-culture): 20.66 pg/mL
- MIP-1b level (Caco-2/moDCs co-culture): 85.91 pg/mL
- PDGF-AA level (Caco-2/moDCs co-culture): 233.14 pg/mL
- PDGF-AB/BB level (Caco-2/moDCs co-culture): 92.84 pg/mL
- RANTES level (Caco-2/moDCs co-culture): <0.62↓ pg/ml
- TGF-a level (Caco-2/moDCs co-culture): 40.15 pg/mL
- TNFa level (Caco-2/moDCs co-culture): 20.96 pg/mL
- TNFb level (Caco-2/moDCs co-culture): 1.55 pg/mL
- VEGFa level (Caco-2/moDCs co-culture): 82.2 pg/mL
- sCD40L level (Caco-2/moDCs co-culture): 98.67 pg/mL
- toxicity for Beas-2B cells [1]: not toxic
